Experiments:
open wound of rat skin = test: Open wound healing by external or topical application to skin (propet ointment); format: in vivo, rats; conditions: for action to promote wound healing: sprayed or spread on the local open wound of rats' skin, inventors' experiences
From the text: For that purpose, for example, by using Wistar male rats (body weight about 300 g), the punch biopsies with diameter 6 mm were made in the dorsal region of animals after shaving under inhalation anesthesia to prepare 3 regions of open wound. Among them, 0.1 g of ophthalmic white Vaseline (Propet) containing 0.01% by weight or 0.001% by weight of ginsenoside Rb1 was spread once for every day in two regions, and in the remaining open wound, the equal amount of ophthalmic white Vaseline (propet) was spread. Nine days after preparing open wound, the skin including wound regions was photographed. Further, we have examined the effects of external or topical cutaneous spread of 0.0001% by weight, 0.00001% by weight or 0.000001% by weight of ginsenoside Rb1 by the same procedure. Experimental animals were euthanized by anesthetia immediately before photographing, then wound regions were dissected out after photographing or after dissecting out wound regions, photographing was performed. Thereafter, the wound region tissues were stored in the fixative. FIG. 5 and FIG. 6 are photographs in place of drawings.
The punch biopsy with diameter 6 mm was performed in the dorsal 6 regions of each animal under inhalation anesthesia to prepare open wound. Thereafter, 0.1 g of propet (ophthalmic white vaseline) containing ginsenoside Rb1 at the concentrations of 0.0001% by weight (10^−4% by weight), 0.00001% by weight (10^−5% by weight), 0.000001% by weight (10^−6% by weight), 0.0000001% by weight (10^−7% by weight) and 0.00000001% by weight (10^−8% by weight), respectively, was applied externally, once a day, for 9 days on each open wound. The equal amount of propet alone was applied externally or topically in the control animals. Then, immediately after euthanasia by anesthetization, the skin containing the open wound was dissected out and photographed. The collected skin tissue was preserved in a fixative. FIG. 12 is a photograph in place of drawing.
In each case, there are three wounds on the left side and three wounds on the right side, totally 6 marks of open wounds.
In the experimental cases hereinbefore explained, an area of open wound (flair region) applied externally only with propet is set as a denominator and an area of open wound administered externally with ginsenoside Rb1 at concentrations from 10^−4% by weight to 10^−8% by weight is set as a numerator, and ratio thereof is calculated. In FIG. 13, n=3 and single asterisk (*) indicates significant difference, P<0.05, and two asterisks (**) indicate significant difference, P<0.01. Statistical test was performed according to Scheffe's post hoc test.
Details of dihydroginsenoside Rb1 is described in the specification of PCT/JP00/04102 (Brain cell or nerve cell protecting agents comprising ginseng). The punch biopsy with diameter 6 mm was performed at 5 places in the dorsal region of rats (n=4) under inhalation anesthesia to prepare open wound. Thereafter, 0.1 g of propet containing dihydroginsenoside Rb1 at concentrations of 0.0001% by weight (10^−4% by weight), 0.00001% by weight (10^−5% by weight), 0.000001% by weight (10^−6% by weight) and 0.0000001% by weight (10^−7% by weight), respectively, was applied topically or externally, once a day, for 9 days onto each open wound. The equal amount of propet alone was applied externally or topically in the control animals. Then, immediately after euthanasia by anesthetization, the skin containing the open wound was dissected out and photographed. The collected skin tissue was preserved in a fixative. FIG. 14 is a photograph in place of drawing. In FIG. 14, four cases are shown, and from the upper column, the first case, the second case, the third case and the fourth case are shown.

[1] = tested on: cultured nerve cells (neurons); test: SNP-induced apoptosis of cultured nerve cells, MAP2 immunoblotting; format: cell-based, rats
From the text: We (Sakanaka and Tanaka) had reported that when cultured nerve cells were exposed for a short time to sodium nitroprusside, apoptosis or apoptosis-like cell death of neurons is induced (Toku, K. et al., J. Neurosci. Res., 53, 415-425, 1998). […] We have examined the neuroprotective action of dihydroginsenoside Rb1 using the same experimental system.
Nerve cells were isolated from the cerebral cortices of fetal rats at gestation day 17 by using trypsin EDTA and seeded onto 24 well plate coated with poly-L-lysine. After incubating the cells in Dulbecco's modified Eagle's medium (DMEM) containing 10% fetal calf serum for 16 hours, the culture medium was replaced with a serum-free medium for neuronal culture containing insulin, transferrin, etc. and the neurons were cultured for 3 or 4 days. On day 3 or 4 of culture, sodium nitroprusside (SNP) at the concentration of 300 μM was added to the neuronal culture and incubated for 10 minutes. […] In order to quantify the survival rate of nerve cells or neurons, immunostained MAP2 band was analyzed with densitometry. […]
Nerve cells were isolated from cerebral cortices of fetal rats on gestation day 17 by using trypsin EDTA and seeded onto a 24 well plate(s) coated with poly-L-lysine. […] In order to quantify survival rate of nerve cells, immunostained MAP2 band was analyzed with densitometry.

cerebral infarct lesion = conditions: intravenous 6 pg/day-60 pg/day, rats weighing 300 g; PCT/JP00/04102; cited from earlier work
[2] = Observation of administered animals for side effects; format: in vivo, rats; conditions: present experiments, animals carefully observed
From the text: The amount of administration of ginsenoside Rb1, which is used as the preparation(s) for external or topical application to skin or the preparation(s) for external or topical application to mucosa, is far smaller than the amount of intravenous administration.
Actually, as indicated in PCT/JP00/04102 (Brain cell or nerve cell protecting agents comprising ginseng), as far as directing treatment or therapy of cerebral infarction by continuous intravenous administration in a dose of […] (weighing 300 g), dihydroginsenoside Rb1 is thought to be a quite safe pharmaceutical composition. The amount of administration of ginsenoside Rb1, which is used as the preparation(s) for external or topical application to skin or the preparation(s) for external or topical application to mucosa, is far smaller than the amount of intravenous administration.

In the case of PDGF, the “action to promote wound healing” value (open wound of rat skin) is reported as “inferior to the effects of continuous intravenous administration of ginsenoside Rb1”.

In the case of `CC(C)CCC[C@](C)(O[C@@H]1O[C@H](CO[C@@H]2O[C@H](CO)[C@@H](O)[C@H](O)[C@H]2O)[C@@H](O)[C@H](O)[C@H]1O)[C@H]1CC[C@]2(C)[C@@H]1[C@H](O)C[C@@H]1[C@@]3(C)CC[C@H](O[C@@H]4O[C@H](CO)[C@@H](O)[C@H](O)[C@H]4O[C@@H]4O[C@H](CO)[C@@H](O)[C@H](O)[C@H]4O)C(C)(C)[C@@H]3CC[C@]12C` [dihydroginsenoside Rb1], the “apoptosis or apoptosis-like cell death of neurons caused by SNP, MAP2 band (FIG. 16)” value ([1]; 0.01 fg/ml (lane 3) to 1 ng/ml (lane 7), SNP 300 μM 10 minutes, 16 hours after SNP) is given as “obviously inhibited”, the “apoptosis or apoptosis-like cell death of nerve cells, MAP2 densitometry (FIG. 17)” value ([1]; 0.01 fg/ml to 1 ng/ml, n=5, P<0.001 / P<0.0001) is given as “significantly inhibited” and the “therapeutic effect on brain infarction” value (cerebral infarct lesion) is given as “excellent therapeutic effect on brain infarction”. The “side effect in administered animals” value [2] was “no side effect was noted”, the “ratio of open wound area to propet alone (FIG. 15)” value (open wound of rat skin; 0.00001% by weight (10^−5% by weight) or less, n=4, Fisher's PLSD P<0.05) was “facilitated significantly wound healing” and the “therapeutic effect on open wound in rats” value (open wound of rat skin; 0.0001% by weight (10^−4% by weight)) was “trivial”. For the same compound, the “area of open wound region relative to control” value (open wound of rat skin; dihydroginsenoside Rb1 at 10^−5%, 10^−6% or 10^−7% by weight) was “½-¼”, the “hair growth in wound healing region (FIG. 14)” value (open wound of rat skin; low concentrations of dihydroginsenoside Rb1) was “obvious hair growth was observed” and the “wound healing vs propet alone (FIG. 14)” value (open wound of rat skin; propet containing 10^−5% to 10^−7% by weight (100 ng/g to 1 ng/g), once a day for 9 days, n=4) was “wound healing was obviously promoted”.

In the case of EGF: epidermal growth factor, the “action to promote wound healing” value (open wound of rat skin) is reported as “inferior to the effects of continuous intravenous administration of ginsenoside Rb1”.

With bFGF: basic fibroblast growth factor the “action to promote wound healing” value (open wound of rat skin) was “inferior to the effects of continuous intravenous administration of ginsenoside Rb1”.
